Data published in US20240002416A1 (Rheinische-Friedrich-Wilhelms-Universität Bonn, priority 2020, published 2024).

Key:
human MRGPRX4-83L [1] = target: T1, human MRGPRX4-83L (Homo sapiens, UniProt Q96LA9); assay: β-arrestin assay (CHO β-arrestin ARMS1-ProLink 2 human MRGPRX4 83L); assay type: cell-based; settings: for Emax: efficacy based on maximal effect of 100 nM B-16 (set as 100%), read-out: Emax; for EC50: β-arrestin recruitment, CHO cells, MRGPRX4-83L, read-out: EC50 ± SEM
T1 construct: host or cells: CHO β-arrestin cells
How it was run: (§1)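 CHO cells, recombinant hMRGPRX4 → β-arrestin recruitment via β-gal complementation. Ca mobilization → recombinant astrocytes (83L) or native LN229 cells (83S).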

human MRGPRX4-83L [2] = target: T1, human MRGPRX4-83L; assay: Calcium assay (human MRGPRX4 83L), recombinant astrocytes; assay type: cell-based; settings: for EC50: calcium mobilization, MRGPRX4-83L, read-out: EC50 ± SEM; for Emax: efficacy based on maximal effect of 1 μM B-16 (set as 100%), read-out: Emax
How it was run: as §1

MRGPRX4-83S [3] = target: T2, MRGPRX4-83S (Homo sapiens, UniProt Q96LA9, L83S); assay: β-arrestin assay (CHO β-arrestin human MRGPRX4-83S); assay type: cell-based; parameters: host or cells: CHO β-arrestin cells; settings: for Emax: efficacy based on 100 nM B-16 (set as 100%), read-out: Emax; for EC50: β-arrestin recruitment, CHO cells, MRGPRX4-83S, read-out: EC50 ± SEM
How it was run: as §1

MRGPRX4-83S [4] = target: T2, MRGPRX4-83S; assay: Calcium assay (human glioblastoma LN229 cells expressing the MRGPRX4-83S); assay type: cell-based; parameters: LN229 glioblastoma cells natively expressing the MRGPRX4-83S; endogenous in cells; host or cells: LN229 human glioblastoma cells; settings: for Emax: LN-229, efficacy based on 30 μM H-1 (set as 100%), read-out: Emax; for EC50: calcium mobilization, LN229 cells, MRGPRX4-83S, read-out: EC50 ± SEM
How it was run: as §1

T2 sequence (Q96LA9 whole entry L83S): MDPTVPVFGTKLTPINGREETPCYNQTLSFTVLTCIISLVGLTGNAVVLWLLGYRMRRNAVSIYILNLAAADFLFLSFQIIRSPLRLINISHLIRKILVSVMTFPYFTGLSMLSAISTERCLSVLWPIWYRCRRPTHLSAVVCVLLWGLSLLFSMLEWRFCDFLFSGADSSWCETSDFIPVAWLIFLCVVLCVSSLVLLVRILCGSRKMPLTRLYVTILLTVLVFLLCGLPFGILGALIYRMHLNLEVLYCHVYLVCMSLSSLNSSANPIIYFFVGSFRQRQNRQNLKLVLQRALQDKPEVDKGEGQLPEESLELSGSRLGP
T1 sequence (Q96LA9 whole entry): as the sequence (Q96LA9 whole entry L83S) above, with S83L counted along it

Row | melting point [°C] | Emax (MRGPRX4-83S [3]; Table 3) [%] | EC50 (MRGPRX4-83S [3]; Table 3) [nM] | Emax (MRGPRX4-83S [4]; Table 3) [%] | EC50 (MRGPRX4-83S [4]; Table 3) [nM] | other results | SMILES
1 | 167 to 169 | 93 | 0.298 ± 0.05 | 97 | 0.32 ± 0.087 | Emax (human MRGPRX4-83L [1]; Table 4): 99%; EC50 (human MRGPRX4-83L [1]; Table 4): 85.1 ± 27.9 nM; EC50 (human MRGPRX4-83L [2]; Table 4): 12.7 nM; Emax (human MRGPRX4-83L [2]; Table 4): 101% | C#CCn1c(=O)c2c(nc(CCc3ccccc3Br)n2CC2CCC2)n(CCCCP(=O)(O)O)c1=O [B-45, (4-(8-(2-Bromophenethyl)-7-(cyclobutylmethyl)-2,6-dioxo-1-(prop-2-yn-1-yl)-1,2,6,7-tetrahydro-3H-purin-3-yl)butyl)phosphonic acid]
2 | 111 to 113 | 96 | 3.67 ± 1.21 | 57 | 51.4 ± 8.5 |  | C#CCn1c(=O)c2c(nc(CCc3ccc(OC)cc3)n2CC2CCCC2)n(CCCCP(=O)(O)O)c1=O [B-41, (4-(7-(cyclopentylmethyl)-8-(4-methoxyphenethyl)-2,6-dioxo-1-(prop-2-yn-1-yl)-1,2,6,7-tetra-hydro-3H-purin-3-yl)butyl)phosphonic acid]
3 | 223 to 226 |  |  |  |  | Emax (human MRGPRX4-83L [1]; Table 1): 114%; EC50 (human MRGPRX4-83L [1]; Table 1, means of 3-4 experiments): 11900 ± 1800 nM; EC50 (human MRGPRX4-83L [2]; Table 1): 267 ± 66 nM; Emax (human MRGPRX4-83L [2]; Table 1): 99%; Emax (MRGPRX4-83S [3]; Table 2): 100%; EC50 (MRGPRX4-83S [3]; Table 2): 20.5 ± 2.4 nM; Emax (MRGPRX4-83S [4]; Table 2): 150%; EC50 (MRGPRX4-83S [4]; Table 2): 38.2 ± 10.9 nM | C#CCn1c(=O)c2[nH]c(CCc3cccc(C(F)(F)F)c3)nc2n(CCCCP(=O)(O)O)c1=O [B-6, (4-(2,6-Dioxo-1-(prop-2-yn-1-yl)-8-(3-(trifluoromethyl)phenethyl)-1,2,6,7-tetrahydro-3H-purin-3-yl)butyl)phosphonic acid]
4 | 88 to 90 | 102 | 0.0705 ± 0.0198 | 154 | 0.984 ± 0.054 |  | C#CCn1c(=O)c2c(nc(CCc3ccccc3C)n2C(C)C)n(CCCCP(=O)(O)O)c1=O [B-48, (4-(7-Isopropyl-8-(2-methylphenethyl)-2,6-dioxo-1-(prop-2-yn-1-yl)-1,2,6,7-tetrahydro-3H-purin-3-yl)butyl)phosphonic acid]
5 | 217 to 219 | 78 | 1.48 ± 0.18 | 92 | 0.284 ± 0.074 | Emax (human MRGPRX4-83L [1]; Table 4): 118%; EC50 (human MRGPRX4-83L [1]; Table 4): 113 ± 39 nM; EC50 (human MRGPRX4-83L [2]; Table 4): 39.7 ± 9.6 nM; Emax (human MRGPRX4-83L [2]; Table 4): 62% | C#CCn1c(=O)c2c(nc(CCc3ccccc3F)n2C)n(CCCCP(=O)(O)O)c1=O [B-28, (4-(8-(2-Fluorophenethyl)-7-methyl-2,6-dioxo-1-(prop-2-yn-1-yl)-1,2,6,7-tetrahydro-3H-purin-3-yl)butyl)phosphonic acid]
6 | 105 to 107 | 103 | 0.0751 ± 0.0229 | 119 | 0.491 ± 0.192 |  | C#CCn1c(=O)c2c(nc(CCc3ccccc3Br)n2C(C)CC)n(CCCCP(=O)(O)O)c1=O (centres unmarked) [B-49, (4-(8-(2-bromophenethyl)-7-(sec-butyl)-2,6-dioxo-1-(prop-2-yn-1-yl)-1,2,6,7-tetrahydro-3H-purin-3-yl)butyl)phosphonic acid]
7 | 156 to 158 | 43 | 2.12 ± 0.85 |  | > 10000 | IC50 (MRGPRX4-83S [4]): 0.0873 ± 0.012 nM | C#CCn1c(=O)c2c(nc(CCc3ccc(-c4ccccc4)cc3)n2CC2CCCC2)n(CCCCP(=O)(O)O)c1=O [B-44, (4-(8-(2-([1,1′-biphenyl]-4-yl)ethyl)-7-(cyclopentylmethyl)-2,6-dioxo-1-(prop-2-yn-1-yl)-1,2,6,7-tetrahydro-3H-purin-3-yl)butyl)phosphonic acid]
8 | 101 to 102 | 77 | 18.3 ± 6.1 | 8 | 23.7 ± 0.7 | IC50 (MRGPRX4-83S [4]): 13 ± 1.4 nM | C#CCn1c(=O)c2c(nc(CCc3ccc(C(F)(F)F)cc3)n2CC2CCCC2)n(CCCCP(=O)(O)O)c1=O [B-40, (4-(7-(cyclopentylmethyl)-2,6-dioxo-1-(prop-2-yn-1-yl)-8-(4-(trifluoromethyl)phenethyl)-1,2,6,7-tetrahydro-3H-purin-3-yl)butyl)phosphonic acid]
9 | 192 to 194 |  | > 100000 |  | > 10000 |  | C#CCn1c(=O)c2[nH]c(CCc3ccccc3Br)nc2n(CCCCCC(=O)O)c1=O [G-3, 6-(8-(2-Bromophenethyl)-2,6-dioxo-1-(prop-2-yn-1-yl)-1,2,6,7-tetrahydro-3H-purin-3-yl) hexanoic acid]
